Test results from patent publication US8658693B2, “4-aminobenzonitrile selective androgen receptor modulators” (Eli Lilly and Company, priority 2011, dated 2014).
pEC50, pKi: −log10 of the molar value. Like-named read-outs stand apart in the source and are kept apart here.

Columns and labels:
[1] = target: T1, human GR (glucocorticoid receptor) (Homo sapiens, UniProt P04150); experiment: Steroid hormone nuclear receptor binding assay, GR; settings: for Ki: HEK293 lysate, [3H]-dexamethasone, read-out: GR (Ki nM)
T1 construct: expressed in transfected cells; host or cells: HEK293
T1 sequence (P04150 1-777): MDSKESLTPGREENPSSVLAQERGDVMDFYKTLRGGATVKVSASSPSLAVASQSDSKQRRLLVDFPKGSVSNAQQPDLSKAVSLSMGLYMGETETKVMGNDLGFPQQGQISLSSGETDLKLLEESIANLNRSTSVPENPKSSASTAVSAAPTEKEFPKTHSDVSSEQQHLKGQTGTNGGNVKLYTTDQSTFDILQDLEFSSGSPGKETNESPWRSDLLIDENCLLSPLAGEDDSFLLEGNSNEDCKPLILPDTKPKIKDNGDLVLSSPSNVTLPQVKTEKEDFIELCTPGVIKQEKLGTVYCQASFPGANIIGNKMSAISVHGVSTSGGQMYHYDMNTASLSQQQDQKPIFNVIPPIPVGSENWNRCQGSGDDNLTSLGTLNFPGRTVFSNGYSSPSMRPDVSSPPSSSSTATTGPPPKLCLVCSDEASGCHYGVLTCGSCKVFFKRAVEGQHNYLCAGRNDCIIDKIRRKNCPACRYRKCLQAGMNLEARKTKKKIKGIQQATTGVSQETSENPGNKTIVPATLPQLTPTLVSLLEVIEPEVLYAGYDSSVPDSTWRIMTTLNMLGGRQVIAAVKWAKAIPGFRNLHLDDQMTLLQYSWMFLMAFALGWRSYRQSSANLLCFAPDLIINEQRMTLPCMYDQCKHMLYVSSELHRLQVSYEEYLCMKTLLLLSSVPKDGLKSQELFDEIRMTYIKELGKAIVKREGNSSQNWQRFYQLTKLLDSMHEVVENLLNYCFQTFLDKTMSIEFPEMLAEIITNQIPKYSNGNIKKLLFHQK

[2] = tested on: HDL cholesterol in Cynomolgus monkeys; settings: transdermal delivery
[3] = target: T2, human AR (androgen receptor) (Homo sapiens, UniProt P10275); experiment: Steroid hormone nuclear receptor binding assay, AR; settings: HEK293 lysate, [3H]-methyltrienolone
T2 construct: expressed in transfected cells; host or cells: HEK293
T2 sequence (P10275 1-920): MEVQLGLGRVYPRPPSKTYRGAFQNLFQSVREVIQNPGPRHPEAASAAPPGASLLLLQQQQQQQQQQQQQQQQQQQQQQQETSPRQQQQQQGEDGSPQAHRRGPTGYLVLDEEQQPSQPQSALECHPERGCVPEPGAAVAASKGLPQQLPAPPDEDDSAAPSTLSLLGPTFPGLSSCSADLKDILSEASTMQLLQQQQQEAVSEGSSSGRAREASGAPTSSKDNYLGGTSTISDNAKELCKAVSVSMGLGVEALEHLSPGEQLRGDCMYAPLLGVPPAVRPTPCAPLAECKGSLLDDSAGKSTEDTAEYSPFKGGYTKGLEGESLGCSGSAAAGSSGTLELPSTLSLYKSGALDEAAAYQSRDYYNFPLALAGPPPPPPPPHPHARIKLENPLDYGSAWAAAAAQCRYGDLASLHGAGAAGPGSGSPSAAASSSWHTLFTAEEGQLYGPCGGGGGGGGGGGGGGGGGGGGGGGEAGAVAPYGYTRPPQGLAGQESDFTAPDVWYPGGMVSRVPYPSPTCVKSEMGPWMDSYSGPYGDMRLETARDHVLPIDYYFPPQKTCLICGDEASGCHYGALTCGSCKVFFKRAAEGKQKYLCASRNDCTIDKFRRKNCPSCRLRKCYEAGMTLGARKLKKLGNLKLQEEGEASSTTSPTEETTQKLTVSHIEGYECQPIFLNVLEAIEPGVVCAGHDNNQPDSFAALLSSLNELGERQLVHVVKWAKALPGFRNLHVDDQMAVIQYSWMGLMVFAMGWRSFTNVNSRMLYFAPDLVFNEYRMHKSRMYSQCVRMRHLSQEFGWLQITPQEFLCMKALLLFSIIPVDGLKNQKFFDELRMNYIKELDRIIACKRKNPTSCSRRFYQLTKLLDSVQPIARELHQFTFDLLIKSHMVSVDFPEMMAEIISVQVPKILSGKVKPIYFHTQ

[4] = target: T3, human MR (mineralocorticoid receptor) (Homo sapiens, UniProt P08235); experiment: Steroid hormone nuclear receptor binding assay, MR; settings: HEK293 lysate, [3H]-aldosterone
T3 construct: expressed in transfected cells; host or cells: HEK293
T3 sequence (P08235 1-984): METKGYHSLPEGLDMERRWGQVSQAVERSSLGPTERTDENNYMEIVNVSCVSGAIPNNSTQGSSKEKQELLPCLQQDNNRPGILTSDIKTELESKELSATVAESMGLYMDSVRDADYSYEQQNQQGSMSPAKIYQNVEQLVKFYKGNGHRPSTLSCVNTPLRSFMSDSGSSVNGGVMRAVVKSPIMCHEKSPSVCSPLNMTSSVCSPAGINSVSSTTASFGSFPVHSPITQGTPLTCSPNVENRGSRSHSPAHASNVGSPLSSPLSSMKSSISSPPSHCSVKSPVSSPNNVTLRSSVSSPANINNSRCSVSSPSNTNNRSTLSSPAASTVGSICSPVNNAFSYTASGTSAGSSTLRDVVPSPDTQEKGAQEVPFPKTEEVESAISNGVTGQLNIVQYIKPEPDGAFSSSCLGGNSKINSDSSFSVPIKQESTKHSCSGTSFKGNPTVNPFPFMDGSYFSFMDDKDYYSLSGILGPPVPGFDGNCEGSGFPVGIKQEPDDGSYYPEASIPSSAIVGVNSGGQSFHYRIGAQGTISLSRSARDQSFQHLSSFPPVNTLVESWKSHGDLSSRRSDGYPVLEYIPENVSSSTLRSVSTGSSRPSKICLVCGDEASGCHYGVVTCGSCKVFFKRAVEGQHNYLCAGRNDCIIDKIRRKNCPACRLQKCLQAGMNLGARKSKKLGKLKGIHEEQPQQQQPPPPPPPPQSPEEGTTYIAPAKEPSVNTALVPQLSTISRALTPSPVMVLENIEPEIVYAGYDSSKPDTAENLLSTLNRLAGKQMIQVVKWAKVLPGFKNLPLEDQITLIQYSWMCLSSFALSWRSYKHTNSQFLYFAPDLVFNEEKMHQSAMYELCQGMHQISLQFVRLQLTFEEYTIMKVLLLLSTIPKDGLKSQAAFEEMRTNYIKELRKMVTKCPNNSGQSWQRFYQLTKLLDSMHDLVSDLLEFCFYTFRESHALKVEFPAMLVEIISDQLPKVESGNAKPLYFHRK

[5] = target: T4, human PR (progesterone receptor) (Homo sapiens, UniProt P06401); experiment: Steroid hormone nuclear receptor binding assay, PR; settings: HEK293 lysate, [3H]-methyltrienolone
T4 construct: expressed in transfected cells; host or cells: HEK293
T4 sequence (P06401 1-933): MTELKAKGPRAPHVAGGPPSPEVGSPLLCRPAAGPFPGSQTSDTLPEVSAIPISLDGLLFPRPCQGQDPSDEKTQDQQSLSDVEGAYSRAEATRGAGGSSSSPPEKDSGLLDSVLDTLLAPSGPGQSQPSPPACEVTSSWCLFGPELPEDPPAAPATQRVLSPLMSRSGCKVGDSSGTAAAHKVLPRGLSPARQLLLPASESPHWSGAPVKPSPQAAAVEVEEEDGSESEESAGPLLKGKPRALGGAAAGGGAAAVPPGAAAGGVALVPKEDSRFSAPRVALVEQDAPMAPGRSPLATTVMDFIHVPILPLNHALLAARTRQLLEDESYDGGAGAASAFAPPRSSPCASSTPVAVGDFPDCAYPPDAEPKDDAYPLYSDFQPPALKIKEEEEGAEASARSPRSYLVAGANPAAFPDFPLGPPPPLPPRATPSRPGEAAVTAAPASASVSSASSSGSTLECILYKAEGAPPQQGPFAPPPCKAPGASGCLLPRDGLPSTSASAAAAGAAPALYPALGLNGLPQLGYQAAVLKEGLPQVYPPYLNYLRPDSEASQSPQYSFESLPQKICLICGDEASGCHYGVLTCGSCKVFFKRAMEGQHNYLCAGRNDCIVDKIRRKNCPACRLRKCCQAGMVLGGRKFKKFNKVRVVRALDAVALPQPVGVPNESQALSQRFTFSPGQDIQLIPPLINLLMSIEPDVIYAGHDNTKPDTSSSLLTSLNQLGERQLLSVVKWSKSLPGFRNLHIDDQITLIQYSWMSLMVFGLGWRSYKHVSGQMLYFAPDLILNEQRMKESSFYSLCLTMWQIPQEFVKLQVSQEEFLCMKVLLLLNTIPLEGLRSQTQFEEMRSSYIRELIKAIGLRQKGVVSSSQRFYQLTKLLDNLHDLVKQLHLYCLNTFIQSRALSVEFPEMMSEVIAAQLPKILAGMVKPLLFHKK

[6] = target: T5, human androgen receptor (AR) (Homo sapiens, UniProt P10275); experiment: C2C12 AR/ARE reporter assay; format: cell-based; settings: mouse myoblast C2C12 cells, luciferase reporter, 24 h
T5 construct: expressed in transfected cells; host or cells: mouse myoblast C2C12 cells
T5 sequence (P10275 1-920): T2 sequence (P10275 1-920)

## Cc1c(N[C@@H]2CCC[C@@]2(C)O)ccc(C#N)c1Cl (single isomer, unassigned) [Example 1]
[1]
  pKi: < 5.22
[2]
  effect on HDL: minimal effect

## Cc1c(N[C@H]2CC[C@H](O)[C@]2(C)O)ccc(C#N)c1Cl (single isomer, unassigned) [Example 20]
[3]
  Ki: 38.1 nM
[1]
  Ki: > 5730 nM
[4]
  Ki: > 7150 nM
[5]
  Ki: > 7960 nM
[6]
  pEC50: 6.84

## CCc1c(NC2CCOCC2(C)O)ccc(C#N)c1Cl (single isomer, unassigned; diastereomer 2) [Example 32, 2-Chloro-3-ethyl-4-[[3-hydroxy-3-methyl-tetrahydropyran-4-yl]amino]benzonitrile, Diastereomer 2]
[3]
  Ki: 162 nM
[1]
  Ki: > 5820 nM
[4]
  Ki: 3960 nM
[5]
  Ki: 4290 nM
[6]
  pEC50: 6.56
